Structures can show the parent of a compound that is named as a salt.
Experiments:
[1] = tested on: TEL-PDGFRβ-BaF3; experiment: Proliferation of TEL-PDGFRβ-BaF3 cells, CCK8 cell viability assay; type: cell-based; conditions: Mus musculus, 72 hours, stably expressing PDGFRβ kinase
Excerpt: (§1) In this example the following cells were used: […] (purchased from ATCC), mouse P210-BaF3 (stably expressing BCR-ABL mutant activated kinase), mouse P210/T315I-BaF3 (stably expressing BCR-ABL/T315I mutant activated kinase), mouse FLT3-ITD-BaF3 (stably expressing FLT3/ITD mutant activated kinase), mouse TEL-FLT3-BaF3 (stably expressing FLT3 kinase), mouse TEL-cKIT-BaF3 (stably expressing cKIT kinase), mouse BaF3-tel/T670I-cKit (stably expressing cKIT/T670I mutant activated kinase), mouse Tel-VEGFR2-BaF3 (stably expressing VEGFR2 kinase), mouse Tel-PDGFRα-BaF3 (stably expressing PDGFRα kinase), mouse Tel-PDGFRβ-BaF3 (stably expressing PDGFRβ kinase), mouse Tel-RET-BaF3 (stably expressing RET kinase). The above cell lines were all constructed by our laboratory according to the following method: the kinase region sequences of human P210, P210/T315I, FLT3/ITD, FLT3, cKIT, cKIT/T670I, VEGFR2, PDGFRα, PDGFRβ, RET were respectively amplified by PCR, and inserted into MSCV-Puro vectors having N-terminal TEL or TPR fragments (Clontech). The vectors were stably transfected into mouse BaF3 cells by means of retrovirus, and the growth factor IL-3 were removed, eventually obtaining cell lines that depend on transferred protein P210, P210/T315I, FLT3/ITD, FLT3, cKIT, cKIT/T670I, VEGFR2, PDGFRα, PDGFRβ, or RET.
(§2) GI50 (unit: μM) was calculated by quantifying the number of living cells based on quantitative measurement of reductive dehydrogenase in living cells with CCK8 cell viability assay kit (Bestbio, China).

[2] = tested on: Tel-cKit-BaF3; experiment: Proliferation of Tel-cKit-BaF3 cells, CCK8 cell viability assay; type: cell-based, mouse; conditions: for GI50: Mus musculus, 72 hours, CCK8, stably expressing cKIT kinase
Excerpt: as §1, §2

[3] = tested on: BaF3; experiment: Proliferation of BaF3 cells, CCK8 cell viability assay; type: cell-based; conditions: Mus musculus, 72 hours
Excerpt: as §1, §2

[4] = tested on: TEL-PDGFRα-BaF3; experiment: Proliferation of TEL-PDGFRα-BaF3 cells, CCK8 cell viability assay; type: cell-based; conditions: Mus musculus, 72 hours, stably expressing PDGFRα kinase
Excerpt: as §1, §2

[5] = tested on: Tel-RET-BaF3; experiment: Proliferation of Tel-RET-BaF3 cells, CCK8 cell viability assay; type: cell-based; conditions: Mus musculus, 72 hours, stably expressing RET kinase
Excerpt: as §1, §2

[6] = tested on: Tel-cKit/T670I-BaF3; experiment: Proliferation of Tel-cKit/T670I-BaF3 cells, CCK8 cell viability assay; type: cell-based; conditions: Mus musculus, 72 hours, stably expressing cKIT/T670I
Excerpt: as §1, §2

[7] = tested on: FLT3-ITD-BaF3; experiment: Proliferation of FLT3-ITD-BaF3 cells, CCK8 cell viability assay; type: cell-based; conditions: Mus musculus, 72 hours, stably expressing FLT3/ITD
Excerpt: as §1, §2

[8] = tested on: TEL-VEGFR2-BaF3; experiment: Proliferation of TEL-VEGFR2-BaF3 cells, CCK8 cell viability assay; type: cell-based; conditions: Mus musculus, 72 hours, stably expressing VEGFR2 kinase
Excerpt: as §1, §2

[9] = tested on: P210-BaF3; experiment: Proliferation of P210-BaF3 cells, CCK8 cell viability assay; type: cell-based; conditions: Mus musculus, 72 hours, stably expressing BCR-ABL mutant activated kinase
Excerpt: as §1, §2

[10] = tested on: Tel-FLT3-BaF3; experiment: Proliferation of Tel-FLT3-BaF3 cells, CCK8 cell viability assay; type: cell-based; conditions: Mus musculus, 72 hours, stably expressing FLT3 kinase
Excerpt: as §1, §2

| Compound | GI50 [1] [µM] | GI50 [2] [µM] | GI50 [3] [µM] | GI50 [4] [µM] | GI50 [5] [µM] | GI50 [6] [µM] | GI50 [7] [µM] | GI50 [8] [µM] | GI50 [9] [µM] | GI50 [10] [µM] | inhibition of cKIT (in words) ([2]; summary of Table 2) |
| --- | --- | --- | --- | --- | --- | --- | --- | --- | --- | --- | --- |
| CC(=O)Nc1cc(Oc2ccc(NC(=O)Cc3ccccc3I)cc2)ncn1 [Example 4, N-[4-(6-acetylamino-pyrimidin-4-yloxy)-phenyl]-2-(2-iodo-phenyl)-acetamide] | 0.048 | > 10 | > 10 | 0.013 | > 10 | > 10 | 0.061 | 0.734 | > 10 | 0.667 |  |
| CC[C@@H]1CN(C(=O)OC(C)(C)C)CCN1c1cc(Oc2ccc(NC(=O)Nc3ccc(C)c(C(F)(F)F)c3)cc2)ncn1 [Example 111, (R)-3-ethyl-4-(6-(4-(3-(4-methyl-3-(trifluoromethyl)phenyl)ureido)phenoxy)pyrimidin-4-yl)piperazin-1-tert-butyl formate] | 0.69 | 6.05 | > 10 | 0.19 | > 10 | 8.6 | 0.141 | 1.74 |  | 6.16 |  |
| Cc1ccc(NC(=O)Nc2ccc(Oc3cc(NC4CCN(C(=O)OC(C)(C)C)CC4)ncn3)cc2)cc1C(F)(F)F [Example 99, 4-(6-{4-[3-(4-methyl-3-trifluoromethyl-phenyl)-ureido]-phenoxy}-pyrimidin-4-ylamino)-piperidin-1-tert-butyl Formate] | 0.277 | 0.34 | > 10 | 0.014 | 4.6 | 0.99 | 0.017 | 0.202 |  | 0.066 |  |
| Cc1ccc(NC(=O)Nc2ccc(Oc3cc(N4CCNC[C@@H]4C)ncn3)cc2)cc1C(F)(F)F [Example 107, (S)-1-(4-methyl-3-(trifluoromethyl)phenyl)-3-(4-((6-(2-methylpiperazin-1-yl)pyrimidin-4-yl)oxy)phenyl)urea] | 0.117 | 2.85 | 8.12 | 0.034 | 1.98 | 0.94 | 0.15 | 0.508 |  | 0.34 |  |
| Cc1ccc(NC(=O)Nc2ccc(Oc3cc(N4CCNCC4C)ncn3)cc2)cc1C(F)(F)F (stereo not drawn) [Example 104, 1-{4-[6-(2-methyl-piperazin-1-yl)-pyrimidin-4-yloxy]-phenyl}-3-(4-methyl-3-trifluoromethyl-phenyl)-urea] | 0.173 | 1.8 | 8.48 | 0.014 | 3.62 | 5.13 | 0.29 | 2.89 |  | 0.67 |  |
| CNC(=O)c1cc(Oc2ccc(NC(=O)Nc3ccc(Cl)c(C(F)(F)F)c3)cc2)ccn1 [Sorafenib, reference compound] | 0.035 | 0.058 | 6.99 | 0.0006 | 0.365 | 0.112 | 0.0003 |  | 3.83 | 0.0009 | strongly inhibits |
| CC(=O)Nc1cc(Oc2ccc(NC(=O)Cc3c(Cl)cccc3Cl)cc2)ncn1 [Example 6, N-[4-(6-acetylamino-pyrimidin-4-yloxy)-phenyl]-2-(2,6-dichloro-phenyl)-acetamide] | 0.346 | > 10 | > 10 | 0.059 | > 10 | > 10 | 0.063 | 1.93 | > 10 | 0.663 |  |
| Cc1ccc(NC(=O)Nc2ccc(Oc3cc(N4CCN(C(=O)OC(C)(C)C)C[C@H]4CO)ncn3)cc2)cc1C(F)(F)F [Example 110, (S)-3-(hydroxymethyl)-4-(6-(4-(3-(4-methyl-3-(trifluoromethyl)phenyl)ureido)phenoxy)pyrimidin-4-yl)piperazin-1-tert-butyl Formate] | 0.27 | 2.25 | > 10 | 0.06 | 6.21 | 5.29 | 0.182 | 4.62 |  | 4.86 |  |
| Cc1ccc(NC(=O)Nc2ccc(Oc3cc(N4CCNC[C@H]4C)ncn3)cc2)cc1C(F)(F)F [Example 105, (R)-1-(4-methyl-3-(trifluoromethyl)phenyl)-3-(4-((6-(2-methylpiperazin-1-yl)pyrimidin-4-yl)oxy)phenyl)urea] | 0.195 | 0.99 | 9.67 | 0.014 | 2.75 | 2.16 | 0.086 | 0.323 |  | 0.2 |  |
| Cc1ccc(NC(=O)Nc2ccc(Oc3cc(N[C@H](C)CN)ncn3)cc2)cc1C(F)(F)F [Example 113, (R)-1-(4-((6-((1-aminoprop-2-yl)amino)pyrimidin-4-yl)oxy)phenyl)-3-(4-methyl-3-(trifluoromethyl)phenyl)urea] | 0.17 | 3.22 | > 10 | 0.086 | > 10 | 8.54 | 0.259 | 1.26 |  | 0.638 |  |
| CN1CCN(Cc2ccc(NC(=O)Nc3ccc(Oc4cc(NCCN)ncn4)cc3)cc2C(F)(F)F)CC1 [Example 108, 1-{4-[6-(2-amino-ethylamino)-pyrimidin-4-yloxy]-phenyl}-3-[4-(4-methyl-piperazin-1-ylmethyl)-3-trifluoromethyl-phenyl]-urea] | 0.324 | 0.97 | > 10 | 0.016 | 3.88 | 7.82 | 0.009 | 0.098 |  | 0.011 |  |
| CCN1CCN(Cc2ccc(NC(=O)Nc3ccc(Oc4cc(NCCN)ncn4)cc3)cc2C(F)(F)F)CC1 [Example 109, 1-{4-[6-(2-amino-ethylamino)-pyrimidin-4-yloxy]-phenyl}-3-[4-(4-ethyl-piperazin-1-ylmethyl)-3-trifluoromethyl-phenyl]-urea] | 0.392 | 0.999 | 3.54 | 0.013 | 0.46 | 3.36 | 0.007 | 0.145 |  | 0.011 |  |
| Cc1ccc(NC(=O)Nc2ccc(Oc3cc(N4CCN(C(=O)CC(C)(C)C)C[C@H]4C)ncn3)cc2)cc1C(F)(F)F [Example 115, (R)-1-(4-((6-(4-(3,3-dimethylbutyryl)-2-methylpiperazin-1-yl)pyrimidin-4-yl)oxy)phenyl)-3-(4-methyl-3-(trifluoromethyl)phenyl)urea] | 0.19 | 2.12 | 9.87 | 0.052 | 3.97 | 4.25 | 0.413 | 2.28 |  | 2.19 |  |
| Cc1ccc(NC(=O)Nc2ccc(Oc3cc(N4CCOC[C@H]4C)ncn3)cc2)cc1C(F)(F)F [Example 114, (R)-1-(4-methyl-3-(trifluoromethyl)phenyl)-3-(4-((6-(3-methylmorpholino)pyrimidin-4-yl)oxy)phenyl)urea] | 0.03 | 0.287 | 6.05 | 0.005 | 3.83 | 1.01 | 0.037 | 1.33 |  | 1.09 |  |

From patent publication US11602534B2, “Pyrimidine derivative kinase inhibitors” (HEFEI INSTITUTES OF PHYSICAL SCIENCE, CHINESE ACADEMY OF …, priority 2017, dated 2023)
